Legend:
MYC-ER [1] = test: Cell cycle (S phase) entry after OHT treatment of MYC-ER transduced human fibroblasts; type: cell-based
Description: (§1) Amphotropic viral stocks were generated by co-transfection of pBabe-puro plasmid containing MYC-ER™ or Δ-MYC-ER™ (Littlewood, T. et al., 1995. Nucl. Acids Res. 23:1686-1690) together with Psi^−helper construct (Muller, A. et al., 1991. Mol. Cell. Biol. 11:1785-1792) in 293T cells. Subconfluent WI38 cells (ATCC cat #CCL75) grown in DMEM with 10% FCS were infected with 5 mL of viral supernatant on two consecutive days. The next day, cells were plated at ˜10^4cells/cm^2 in phenol-red free DME medium with 10% FCS, and selected in the presence of puromycin for pBABE vectors. Cells were grown to confluence, for seven to eight days, without media changes. Density arrested cells were induced with 200 nM OHT (4-hydroxy-tamoxifen) or serum starved (0.1% FCS) for 48 hours and then induced. Where specified, cells were exposed to cycloheximide (10 micrograms/mL) for 30 minutes prior to addition of OHT.
Treatment of the transduced cells with OHT, caused 20% of the cells to enter the cell cycle by 17 hours. In contrast, only 1-6% of, OHT-treated, non-MYC-ER expressing controls ever enter S phase. […]

MYC-ER [2] = test: Northern blot of p21 transcript after OHT stimulation of MYC-ER; type: cell-based, human; conditions: within two hours after OHT stimulation, MYC-ER fibroblasts
Description: as §1
Northern blots were performed according to standard procedures (Ausubel, F. et al., 1990. Current Protocols in Molecular Biology. Wiley Interscience, New York). For cyclin D2 and p21, complete cDNA was used as probes. For FKBP52, a PCR amplicon of bps 1215-1767 (accession number M88279) was used; for FABP5 (PA-FA-BP), bps 60-481 (M94856); for ODC1, bps 1198-1984 (X55362); for PPIF (hCyP3), bps 404-803 (M80254); and for EIF5A, bps 46-512 (U17969). […]

In the case of 4-hydroxytamoxifen [OHT], the “cells entering the cell cycle” value (MYC-ER [1]; MYC-ER transduced fibroblasts, by 17 hours after OHT) was 20%, the “cells entering S phase” value (MYC-ER [1]; OHT-treated, non-MYC-ER expressing controls) was 1-6% and the “levels of p21” value (MYC-ER [2]) was “decreased”.

— patent US20010049393A1, “Methods for defining MYC target genes and uses thereof” (Whitehead Institute for Biomedical Research, priority 1999, published 2001)
